Legend:
TEC = biological target: T1, TEC (Homo sapiens, UniProt P42680); assay: Inhibition of a panel of kinases, in vitro HotSpot kinase assay: TEC; type: biochemical; conditions: D-compounds panel data; 1 μM ATP
T1 sequence (P42680 1-631): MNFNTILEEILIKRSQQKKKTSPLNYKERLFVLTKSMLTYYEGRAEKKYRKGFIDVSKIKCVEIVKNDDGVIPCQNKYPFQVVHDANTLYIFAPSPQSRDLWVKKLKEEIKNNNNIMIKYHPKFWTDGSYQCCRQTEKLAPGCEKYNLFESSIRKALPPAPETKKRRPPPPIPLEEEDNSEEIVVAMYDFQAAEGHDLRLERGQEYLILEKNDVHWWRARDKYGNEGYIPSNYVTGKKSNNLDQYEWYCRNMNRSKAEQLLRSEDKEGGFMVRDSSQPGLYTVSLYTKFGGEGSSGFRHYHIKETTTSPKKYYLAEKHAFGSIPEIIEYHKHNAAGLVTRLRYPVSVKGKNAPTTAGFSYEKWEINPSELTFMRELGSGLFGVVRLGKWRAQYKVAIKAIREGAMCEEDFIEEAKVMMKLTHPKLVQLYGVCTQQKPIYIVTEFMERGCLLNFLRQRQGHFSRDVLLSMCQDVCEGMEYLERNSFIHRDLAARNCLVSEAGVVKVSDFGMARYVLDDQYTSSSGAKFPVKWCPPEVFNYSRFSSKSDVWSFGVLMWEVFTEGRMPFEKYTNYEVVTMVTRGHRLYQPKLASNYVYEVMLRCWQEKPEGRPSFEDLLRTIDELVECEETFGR
Description: The degree of inhibition of a panel of kinases is determined using the in vitro HotSpot kinase assay (purified enzymes, ^33P-ATP, an appropriate substrate and 1 μM ATP).

JAK3 = biological target: T2, JAK3 (Homo sapiens, UniProt P52333); assay: Inhibition of a panel of kinases, in vitro HotSpot kinase assay: JAK3; type: biochemical; conditions: D-compounds panel data; 1 μM ATP; read-out: IC50 JAK3
T2 sequence (P52333 1-1124): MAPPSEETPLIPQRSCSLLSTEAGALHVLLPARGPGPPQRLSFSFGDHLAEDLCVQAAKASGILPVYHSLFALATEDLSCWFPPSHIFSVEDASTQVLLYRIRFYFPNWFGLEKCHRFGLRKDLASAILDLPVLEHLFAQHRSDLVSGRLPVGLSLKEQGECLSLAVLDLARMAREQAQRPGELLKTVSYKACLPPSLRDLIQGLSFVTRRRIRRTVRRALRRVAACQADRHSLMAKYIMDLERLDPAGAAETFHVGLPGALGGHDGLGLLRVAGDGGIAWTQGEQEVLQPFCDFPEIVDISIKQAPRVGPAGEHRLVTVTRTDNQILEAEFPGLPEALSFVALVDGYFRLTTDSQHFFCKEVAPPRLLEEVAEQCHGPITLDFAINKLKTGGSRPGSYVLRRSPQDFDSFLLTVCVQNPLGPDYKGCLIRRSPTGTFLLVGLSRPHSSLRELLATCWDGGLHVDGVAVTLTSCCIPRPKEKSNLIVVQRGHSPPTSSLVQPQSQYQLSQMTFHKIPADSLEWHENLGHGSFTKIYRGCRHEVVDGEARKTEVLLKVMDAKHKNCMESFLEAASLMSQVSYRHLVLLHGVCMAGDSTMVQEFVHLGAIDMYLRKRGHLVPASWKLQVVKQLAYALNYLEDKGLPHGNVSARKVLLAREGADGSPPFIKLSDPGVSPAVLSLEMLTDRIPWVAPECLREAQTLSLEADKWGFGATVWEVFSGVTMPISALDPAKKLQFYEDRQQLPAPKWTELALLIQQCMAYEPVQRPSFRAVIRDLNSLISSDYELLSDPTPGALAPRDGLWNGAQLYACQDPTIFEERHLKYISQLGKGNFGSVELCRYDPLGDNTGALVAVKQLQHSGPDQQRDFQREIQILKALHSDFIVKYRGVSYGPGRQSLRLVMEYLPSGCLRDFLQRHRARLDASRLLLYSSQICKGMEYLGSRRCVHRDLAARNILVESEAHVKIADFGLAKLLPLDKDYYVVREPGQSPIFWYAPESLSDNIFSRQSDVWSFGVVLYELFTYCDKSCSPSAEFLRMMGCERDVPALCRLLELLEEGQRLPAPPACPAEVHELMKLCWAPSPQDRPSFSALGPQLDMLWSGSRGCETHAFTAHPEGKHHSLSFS

SMILES | IC50 (TEC) [nM] | IC50 (JAK3) [nM]
C[C@@H]1[C@H](NC(=O)c2ccc(C3CC3)cc2F)CCCN1c1cnc(C(N)=O)c(Nc2ccc(N3CCN(C4CCCC4)CC3)cc2)n1 [Example D-5, 3-{[4-(4-cyclopentylpiperazin-1-yl)phenyl]amino}-5-[(2R,3R)-3-(4-cyclopropyl-2-fluorobenzamido)-2-methylpiperidin-1-yl]pyrazine-2-carboxamide] | 10 to 100 | 100 to 1000
C[C@@H]1[C@H](n2ccc3cc(C4CC4)ccc3c2=O)CCCN1c1cnc(C(N)=O)c(Nc2ccc(N3CCN(C)CC3)cc2)n1 [Example D-6, 5-[(2R,3R)-3-(6-cyclopropyl-1-oxo-1,2-dihydroisoquinolin-2-yl)-2-methylpiperidin-1-yl]-3-{[4-(4-methylpiperazin-1-yl)phenyl]amino}pyrazine-2-carboxamide] | 10 to 100 | 1000 to 10000
CC(C)N1CCN(c2ccc(Nc3nc(N4CCC[C@@H](NC(=O)c5ccc(C6CC6)cc5F)[C@H]4C)cnc3C(N)=O)cc2)CC1 [Example D-7, 5-[(2R,3R)-3-(4-cyclopropyl-2-fluorobenzamido)-2-methylpiperidin-1-yl]-3-({4-[4-(propan-2-yl)piperazin-1-yl]phenyl}amino)pyrazine-2-carboxamide] | 10 to 100 | 1000 to 10000
C[C@@H]1[C@H](NC(=O)c2ccc(C3CC3)cc2F)CCCN1c1cnc(C(N)=O)c(Nc2ccc(N3CCN(C)CC3)cn2)n1 [Example D-8, 5-[(2R,3R)-3-(4-cyclopropyl-2-fluorobenzamido)-2-methylpiperidin-1-yl]-3-{[5-(4-methylpiperazin-1-yl)pyridin-2-yl]amino}pyrazine-2-carboxamide] | 1000 to 10000 | > 10000
C[C@@H]1[C@H](NC(=O)Nc2cccnc2)CCCN1c1cnc(C(N)=O)c(Nc2ccc(C3(C)CCN(C4CCCC4)CC3)cc2)n1 [Example D-9, 3-{[4-(1-cyclopentyl-4-methylpiperidin-4-yl)phenyl]amino}-5-[(2R,3R)-2-methyl-3-{[(pyridin-3-yl)carbamoyl]amino}piperidin-1-yl]pyrazine-2-carboxamide] | 10 to 100 | 100 to 1000
C[C@@H]1[C@H](NC(=O)c2ccc(C3CC3)cc2F)CCCN1c1cnc(C(N)=O)c(Nc2ccc(N3CCN(C)CC3=O)cc2)n1 [Example D-10, 5-[(2R,3R)-3-(4-cyclopropyl-2-fluorobenzamido)-2-methylpiperidin-1-yl]-3-{[4-(4-methyl-2-oxopiperazin-1-yl)phenyl]amino}pyrazine-2-carboxamide] | 10 to 100 | 1000 to 10000
C[C@@H]1[C@H](NC(=O)c2ccc(C(F)(F)F)cc2)CCCN1c1cnc(C(N)=O)c(Nc2ccc(N3CCN(C)CC3)cc2)n1 [Example D-11, 5-[(2R,3R)-2-methyl-3-[4-(trifluoromethyl)benzamido]piperidin-1-yl]-3-{[4-(4-methylpiperazin-1-yl)phenyl]amino}pyrazine-2-carboxamide] | 10 to 100 | 1000 to 10000
C[C@@H]1[C@H](NC(=O)c2ccc(OC(F)(F)F)cc2)CCCN1c1cnc(C(N)=O)c(Nc2cnn(C)c2)n1 [Example D-95, 3-[(1-methyl-1H-pyrazol-4-yl)amino]-5-[(2R,3R)-2-methyl-3-[4-(trifluoromethoxy)benzamido]piperidin-1-yl]pyrazine-2-carboxamide] | 10 to 100 | 1000 to 10000
C[C@@H]1[C@H](NC(=O)c2ccc(C3CC3)cc2)CCCN1c1cnc(C(N)=O)c(Nc2ccc(N3CCC(F)(F)CC3)cc2)n1 [Example D-96, 5-[(2R,3R)-3-(4-cyclopropylbenzamido)-2-methylpiperidin-1-yl]-3-{[4-(4,4-difluoropiperidin-1-yl)phenyl]amino}pyrazine-2-carboxamide] | 10 to 100 | 1000 to 10000
C[C@@H]1[C@H](NC(=O)c2ccc(C3CC3)cc2)CCCN1c1cnc(C(N)=O)c(Nc2ccc(N3CCN(CC(F)(F)F)CC3)cc2)n1 [Example D-97, 5-[(2R,3R)-3-(4-cyclopropylbenzamido)-2-methylpiperidin-1-yl]-3-({4-[4-(2,2,2-trifluoroethyl)piperazin-1-yl]phenyl}amino)pyrazine-2-carboxamide] | 10 to 100 | 1000 to 10000
C[C@@H]1[C@H](NC(=O)c2ccc(C3CC3)cc2)CCCN1c1cnc(C(N)=O)c(Nc2ccc(OC3CCN(CC(F)(F)F)CC3)cc2)n1 [Example D-98, 5-[(2R,3R)-3-(4-cyclopropylbenzamido)-2-methylpiperidin-1-yl]-3-[(4-{[1-(2,2,2-trifluoroethyl)piperidin-4-yl]oxy}phenyl)amino]pyrazine-2-carboxamide] | 100 to 1000 | 1000 to 10000
C[C@@H]1[C@H](NC(=O)c2ccc(C3CC3)cc2)CCCN1c1cnc(C(N)=O)c(Nc2ccc(N3CCC4(CC3)COC4)cc2)n1 [Example D-99, 5-[(2R,3R)-3-(4-cyclopropylbenzamido)-2-methylpiperidin-1-yl]-3-[(4-{2-oxa-7-azaspiro[3.5]nonan-7-yl}phenyl)amino]pyrazine-2-carboxamide] | ≤ 10 | 100 to 1000
C[C@@H]1[C@H](NC(=O)c2ccc(C3CC3)cc2)CCCN1c1cnc(C(N)=O)c(Nc2ccc(N3CCC(C(C)(C)O)CC3)cc2)n1 [Example D-100, 5-[(2R,3R)-3-(4-cyclopropylbenzamido)-2-methylpiperidin-1-yl]-3-({4-[4-(2-hydroxypropan-2-yl)piperidin-1-yl]phenyl}amino)pyrazine-2-carboxamide] | ≤ 10 | 1000 to 10000
C[C@@H]1[C@H](NC(=O)c2ccc(C3CC3)cc2)CCCN1c1cnc(C(N)=O)c(Nc2ccc(OC3CCN(C4CCCC4)CC3)cc2)n1 [Example D-101, 3-({4-[(1-cyclopentylpiperidin-4-yl)oxy]phenyl}amino)-5-[(2R,3R)-3-(4-cyclopropylbenzamido)-2-methylpiperidin-1-yl]pyrazine-2-carboxamide] | ≤ 10 | 1000 to 10000
C[C@@H]1[C@H](NC(=O)N(C)C)CCCN1c1cnc(C(N)=O)c(Nc2ccc(OC3CCN(C4CCCC4)CC3)cc2)n1 [Example D-102, 3-({4-[(1-cyclopentylpiperidin-4-yl)oxy]phenyl}amino)-5-[(2R,3R)-3-[(dimethylcarbamoyl)amino]-2-methylpiperidin-1-yl]pyrazine-2-carboxamide] | 10 to 100 | 100 to 1000
C[C@@H]1[C@H](NC(=O)c2ccc(C3CC3)cc2)CCCN1c1cnc(C(N)=O)c(Nc2ccc(N3CCN(C)CC3)cc2F)n1 [Example D-103, 5-[(2R,3R)-3-(4-cyclopropylbenzamido)-2-methylpiperidin-1-yl]-3-{[2-fluoro-4-(4-methylpiperazin-1-yl)phenyl]amino}pyrazine-2-carboxamide] | 100 to 1000 | > 10000
C[C@@H]1[C@H](NC(=O)c2ccc(C3CC3)cc2)CCCN1c1cnc(C(N)=O)c(Nc2ccc(OC3C[C@H]4CC[C@@H](C3)N4C)cc2)n1 (stereo partly drawn) [Example D-104, 5-[(2R,3R)-3-(4-cyclopropylbenzamido)-2-methylpiperidin-1-yl]-3-[(4-{[(1R,5S)-8-methyl-8-azabicyclo[3.2.1]octan-3-yl]oxy}phenyl)amino]pyrazine-2-carboxamide] | ≤ 10 | 100 to 1000

From patent publication US20210070748A1, “INHIBITORS OF BRUTONS TYROSINE KINASE” (Pharmacyclics LLC, priority 2015, published 2021)
